# Patent publication US4876265A, “Process and compositions for controlling mites parasitizing on honey bees” (priority 1983, dated 1989)
# Columns and labels:
# Acarapis woodi [1] = assay: Package bee colonies infested with Acarapis woodi, mite survival; assay type: in vivo
# Experimental: (§1) Forty-two packages of honey bees (2 lbs.~907 g) are obtained from 22 colonies infested with Acarapis woodi. Infestations range from 60 to 100%. Each package is provided with a mated queen and 550 ml of treated or untreated 50% (wt/wt) sucrose syrup. All treated colonies receive syrup containing either 0.5 mg/ml (group B) or 1.0 mg/ml (group C) of 2-(2,4-dimethylphenylimino)-3-methyl-4-thiazoline hydrochloride. The control (group A) consists of 10 packages of bees and the treatment groups B and C of 16 packages each.
# (§2) After installation on frames free of nectar and pollen, package colonies are examined at weekly intervals to determine food consumption, brood production and bee mortality. Random samples of ten bees/colony are examined on days 5, 12, 19, 26, 33 and 40. On day 0 and 5 bees are examined. Dissections and live mite determinations are made according to Eischen et al. (Am. Bee J. 127: 99-101, 1987).
# honey bees = assay: Package bee colonies, brood production and food consumption; assay type: in vivo, honey bee; settings: 0.5 mg/ml and 1.0 mg/ml; more pronounced at the higher concentration
# Experimental: as §1, §2
# honey-bee colonies = assay: Honey-bee colonies in northeastern Mexico, bee population; assay type: in vivo; settings: end of the test; P<0.05
# Experimental: (§3) Three groups of honey-bee colonies (N=30) located in northeastern Mexico are selected on the basis of the prevalence of Acarapis woodi parasitizing their workers. Lightly (≤10%), moderately (20-60%), and heavily (90-100%) infested colonies are randomly assigned to control or treated subgroups (N=15). Controls receive 50% sucrose syrup, and treated colonies receive syrup medicated with 0.3 mg/ml 2-(2,4-dimethylphenylimino)-3-methyl-4-thiazoline-hydrochloride, small, medium, and large colonies receive 300, 600, and 1000 ml of syrup, respectively. Syrup is fed three times at weekly intervals.
# Acarapis woodi [2] = assay: Honey-bee colonies in northeastern Mexico, parasite load; assay type: in vivo; settings: 0.3 mg/ml in syrup, three times weekly, P<0.05
# Experimental: as §3
# Varroa jacobsoni [3] = assay: Comparative test, lethal dosage for varroa mites; assay type: in vivo; settings: for LD50 in μg active ingredient/bee: oral, 10 μl sucrose suspension
# Description: Compounds (I), (A) and (B) are formulated in accordance with Example F-1.
# The age distribution of the bees in the test group is identical with that in a normal hive. The bees used in the laboratory tests originate from colonies only slightly infested with nosema. All groups of bees are infected with varroatosis (Varroa jacobsoni). To test the tolerance by the bees and the acaricidal activity in the group, 40 bees from the same colony are placed with their brood in each cage. To achieve a better control, each cage is fitted with a pane of glass. A small piece of honeycomb (6×8 cm) is attached at the top of each cage to pacify the bees. During the test period, the bees are kept in a climatic chamber at 25° C. and 85% relative humidity. These conditions are chosen because they are maximally acceptable both for the mites and the bees: the parasitizing mites are least affected and the bees live sufficiently long. To test the systemic activity of the active substance, 4 bees--within a group of 40 bees--are each individually fed with 10 μl of a suspension of the active substance in a 50% aqueous solution of sucrose. The bees have not been fed for at least one hour so that feed with a higher dose can be more readily ingested. 3 to 4 doses are tested in each of 2 groups. In each test series, 2 groups are left untreated as controls.
# 24 and 48 hours after treatment, the activity on varroa mites is determined on the basis of mite mortality. For this purpose a tray (mesh width=2.4 mm) is fixed above the floor of each of the test cages. The mites which have dropped off the bees can thus be collected on paper which had been placed under the tray. 72 hours after treatment, the bees are sacrificed and then washed in benzine to determine the number of mites which have remained on them (method of determining the number of remaining mites according to Ritter, Apidologie, 1980, 11(2), 131-141).
# Percentage mite mortality can be determined from the number of mites which have remained on the bees and the number which have dropped off. Using the Probit analysis (Cavalli-Sforza, Biometrie, G. Frischer Verlag, Stuttgart), the LD50 can be determined from the dosage-mortality curve.
# bees [4] = assay: Wetting method in the beehive, bees killed (tolerability); assay type: in vivo, honey bee
# Experimental: (§4) Six brood-less nuclei [small, manmade colonies of bees with usually 1000 to perhaps 5000 bees; see Morse and Hooper (1985), supra, Nucleus colony, p. 279] infested with varroa mites are treated three times, at intervals of 4 days, with a 0.5% aqueous solution of 2-(2,4-dimethylphenylimino)-3-methylthiazoline. The active substance is dissolved in the form of a concentrate formulation in water. 5 ml of the active substance solution are dropped onto a number of bees present in the bee ways of a beehive. The test is terminated 4 days after the last treatment, that is after a duration of 12 days. The mites and bees which have died in the course of the test are collected on a bottom tray covered with gauze, which has been inserted under the combs before commencement of the test. At the end of the test, the bees are killed, and the mites remaining on them are washed out in benzine and counted. For the evaluation, the number of dead mites and bees collected during the test is determined, the fact being taken into consideration that for the length of time of the test a natural mortality rate of about 0.5% of bees is to be expected.
# Tropilaelaps clareae = settings: Thailand, 10 colonies each, four products; dose rates proposed for Varroa-mite-treatment; cited from earlier work
# varroa mites [5] = assay: Wetting method in the beehive, mites killed; assay type: in vivo; settings: 0.5% aqueous solution, 5 ml dropped, three times at 4-day intervals; 12 days
# Experimental: as §4
# Varroa jacobsoni [6] = settings: Thailand, 10 colonies each, four products; manufacturers' dose rates for Varroa-mite-treatment; cited from earlier work
# varroa mites [7] = assay: Feeding method in the laboratory, varroa mite mortality; assay type: in vivo; settings: 7 days
# Experimental: Thirty bees infested with varroa mites are each individually fed with 10 μl of a sugar-containing solution of 2-(2,4-dimethylphenylimino)-3-methylthiazoline. […] After being fed, the bees are kept in groups each of 10 for 7 days in cages. The mites which in the course of the test have fallen off dead are collected in trays placed under the individual cages. The bees are subsequently killed and are examined for remaining mites. The counting of the mites that have fallen down and those remaining on the bees is carried out after 7 days.
# bees [8] = assay: Tests under natural conditions, bee mortality rate; assay type: in vivo, honey bee; settings: overall; in the range of the untreated control group; 30240 min
# Description: 33 brood-less bee colonies (~20,000 bees) infested with varroa mites are divided into three groups and treated with 2-(2,4-dimethylphenylimino)-3-methylthiazoline in solutions of varying concentration, originating in one case from a 15% emulsion concentrate (EC-15) and in the other case from a 15% water-soluble powder (SP-15). In the latter case, the active ingredient I is in the form of a salt (cf. Formulation Examples).
# All three groups A, B and C, each consisting of 11 colonies, receive during the time of treatment the same total amount of active ingredient.
# In the following the applied amounts per bee way are given. Depending on the size of the bee colony, a beehive contains between 5 and 15 bee ways, so that the amount of active ingredient applied is correspondingly adjusted from hive to hive.
# In each case 5 ml of a 4% aqueous solution or emulsion per bee way are sprayed onto a number of selected bees. The remaining bees provide for a uniform distribution of the active ingredient in the colony. The partial wetting procedure is repeated after 7 days and after 14 days (observation period 21 days). […]
# The mites and bees that have died during and after the treatment are collected daily from a bottom tray. 21 days after the first application, the bee colonies are killed and the remaining number of mites is then determined (observation period 21 days).
smiles,measurement,setting,value
"Cc1ccc(N=c2sccn2C)c(C)c1.Cl [2-(2,4-dimethylphenylimino)-3-methyl-4-thiazoline hydrochloride]",time at which efficacy is apparent,Acarapis woodi [1]; 0.5 mg/ml and 1.0 mg/ml in syrup,7 days
same,control of mites,Acarapis woodi [1]; after 26 days,almost complete control of mites
same,Mite survival,"Acarapis woodi [1]; groups B (0.5 mg/ml) and C (1.0 mg/ml) in syrup, after 14 days",less than 1 live mite/trachea
same,live mites found in the tracheae of treated package bees,"Acarapis woodi [1]; groups B (0.5 mg/ml) and C (1.0 mg/ml), after 26 days",no live mites
same,effect on honey bee larvae (spotty brood patterns),honey bees,detrimental to some honey bee larvae as spotty brood patterns are observed in several colonies
same,bee population of medicated colonies versus controls,honey-bee colonies,significantly larger bee populations than controls
same,parasite load score,"Acarapis woodi [2]; heavily infested (90-100%), control 1.13",0.63
same,parasite load score,"Acarapis woodi [2]; lightly infested (≤10%), control 2.25",0.53
same,parasite load score,"Acarapis woodi [2]; moderately infested (20-60%), control 3.43",0.84
CCn1ccsc1=Nc1ccc(C)cc1C [Compound (A)],LD50 in μg active ingredient/bee,Varroa jacobsoni [3]; 24 hours after application,35 μg active ingredient/bee
same,LD50 in μg active ingredient/bee,Varroa jacobsoni [3]; 48 hours after application,35 μg active ingredient/bee
Cc1cccc(C)c1N=c1sccn1C [Compound (B)],LD50 in μg active ingredient/bee,Varroa jacobsoni [3]; 24 hours after application,28 μg active ingredient/bee
same,LD50 in μg active ingredient/bee,Varroa jacobsoni [3]; 48 hours after application,28 μg active ingredient/bee
"Cc1ccc(N=c2sccn2C)c(C)c1 [Compound (I), 2-(2,4-dimethylphenylimino)-3-methylthiazoline]",LD50 in μg active ingredient/bee,Varroa jacobsoni [3]; 24 hours after application,17 μg active ingredient/bee
same,LD50 in μg active ingredient/bee,Varroa jacobsoni [3]; 48 hours after application,13 μg active ingredient/bee
same,activity against varroa mites versus compounds (A) and (B),Varroa jacobsoni [3]; varroacidal test,significantly better activity against varroa mites
same,Killed organisms in %: bees,"bees [4]; 0.5% aqueous solution, 5 ml dropped, three times at 4-day intervals, 12 days, natural mortality about 0.5% expected",0.4%
same,mortality of the bees during the test,bees [4]; compared with expected range and untreated control group,exactly within the expected range and does not differ from the mortality of the untreated control group
same,comparative efficacy against Tropilaelaps clareae,Tropilaelaps clareae,best product against both mites
same,Killed organisms in %: mites,varroa mites [5],91.8%
same,comparative efficacy against Varroa jacobsoni,Varroa jacobsoni [6],best product against both mites
same,Fallen mites,"varroa mites [7]; 10 μl sugar solution fed per bee, 30 bees, total mites 35",34
same,Mortality rate in % (mites),varroa mites [7]; 10 μl sugar solution fed per bee,97%
same,killing of parasitizing mites,varroa mites [7]; feeding method in the laboratory,killing nearly all of the parasitizing mites
same,mortality of the treated bees,bees [8],about 1%
